Experimental data: patent publication US20240325477A1, “PROTEIN HYDROLYSATE OF MORINGA PEREGRINA SEED CAKE FOR ITS APPLICATION AS A MEDICAMENT, PROCESS FOR OBTAINING SAME AND PHARMACEUTICAL AND DERMATOLOGICAL COMPOSITIONS” (AGENCE FRANCAISE POUR LE DEVELOPPEMENT D'AL ULA, priority 2020, published 2024)
≈ marks a conversion by molar mass, not a printed value. Where two headings read alike, the source gives them in different places. The star is where a group is joined. Decanoyl = CCCCCCCCCC(=O)*; CH2Cl = ClC*

What was measured:
[1] = test system: mouse embryo fibroblasts Balb/c 3T3 clone 31; assay: In vitro 3T3 NRU phototoxicity test; format: cell-based; settings: BALB/c3T3, light or radiation study, read-out: Cl50 (the source's name)
Excerpt: The principle of the test is the comparison of the cytotoxicity of the protein hydrolysate in accordance with Example 1 in the presence and in the absence of a non-cytotoxic dose of UVA, on cells under culture. […] The cells used were mouse embryo fibroblasts from the Balb/c 3T3 clone 31 (ATCC-CCL163) line. The positive control was a solution of chlorpromazine (CAS number: 69-09-0). The negative control was a diluent for the test and reference extract (buffered saline solution+/−1% solvent). […] The fibroblasts were trypsinized and two 96-well culture plates were inoculated in an amount of 100 μL of a 2×10^5 cells/mL (i.e. 2×10^6 cells per well) cell suspension in complete culture medium. The inoculated plates were incubated in an oven for 24 hours at 37° C., 5% CO2. At the end of the incubation, semi-confluence of the cell mat was verified. […] The spectral irradiation of the test device was measured in the wavelength range 250 to 700 nanometers with a calibrated spectroradiometer.
One of the 2 plates was irradiated with its cover at ambient temperature, and the other plate was protected from UVA and stored at ambient temperature for the irradiation period. […] The next day, the cell viability (growth, morphology, integrity of the monolayer) was evaluated by observations using a phase contrast microscope. […] The absorbances were measured at 450 nm.

DKK-1 = DKK-1 synthesis and release by normal human fibroblasts, ELISA, 48 h; format: cell-based; settings: 100 nM
Experimental: The aim of this study is to evaluate the effect of the peregrina protein hydrolysate on the synthesis and release of DKK-1 in a model compound of normal human fibroblasts in a monolayer culture.
Protocol: Human fibroblast cells were obtained from a donor. In order to carry out the experiments, the fibroblasts were cultured in a monolayer to confluence. 100 nM dexamethasone was used as a reference inducer for the synthesis and release of DKK-1. The […] were incubated for 48 hours in the absence (control) or in the presence of the reference product or of the test product: “peregrina protein hydrolysate”: 0.01%; 0.1% and 0.5% (v/v).
At the end of the incubation, the incubation media were removed in order to carry out the DKK-1 liberation method. […]
At the end of the incubation period of 48 hours, the DKK-1 liberated into the incubation medium was quantified with the aid of a sensitive and specific ELISA kit.
At the end of the incubation period, the proteins contained in the cell lysates were quantified with the aid of a spectrocolorimetric method (Bradford method). […]
The level of significance between the “control” and the “reference product” was evaluated with the aid of a Student test (p<0.05).
The level of significance between the “Control” and the “test product” was evaluated by a single factor analysis of variance (one-way ANOVA) followed by a Holm-Sidak test (p<0.05).

recombinant human furin = recombinant human furin (Homo sapiens, UniProt P09958); assay: Furin convertase activity, cleavage of fluorescent substrate; format: biochemical; settings: 100 nM
Sequence of recombinant human furin (P09958 108-794): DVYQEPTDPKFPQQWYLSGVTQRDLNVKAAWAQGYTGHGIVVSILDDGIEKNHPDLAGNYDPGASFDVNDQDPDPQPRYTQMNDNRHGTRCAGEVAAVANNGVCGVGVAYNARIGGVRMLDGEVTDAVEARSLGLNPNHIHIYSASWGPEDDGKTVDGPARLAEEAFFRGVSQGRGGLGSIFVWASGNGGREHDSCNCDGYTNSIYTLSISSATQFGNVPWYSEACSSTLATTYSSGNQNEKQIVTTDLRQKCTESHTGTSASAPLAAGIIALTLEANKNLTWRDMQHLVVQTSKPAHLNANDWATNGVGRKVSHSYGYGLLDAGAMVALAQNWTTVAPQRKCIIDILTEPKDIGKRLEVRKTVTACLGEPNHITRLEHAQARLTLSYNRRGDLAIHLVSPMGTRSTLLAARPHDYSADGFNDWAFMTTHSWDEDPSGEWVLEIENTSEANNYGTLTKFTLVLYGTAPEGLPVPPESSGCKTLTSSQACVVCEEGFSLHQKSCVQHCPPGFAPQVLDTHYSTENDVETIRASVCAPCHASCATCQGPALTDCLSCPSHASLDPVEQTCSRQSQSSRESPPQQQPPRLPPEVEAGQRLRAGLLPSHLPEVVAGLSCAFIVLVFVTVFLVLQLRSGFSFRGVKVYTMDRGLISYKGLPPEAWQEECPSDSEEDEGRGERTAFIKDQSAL
Experimental: Protocol: The study was carried out using a recombinant human furin, which catalyzes cleavage of a specific fluorescent reference substrate.
100 nM decanoyl-Arg-Val-Lys-Arg-CMK was used as a reference inhibitor for the activity of furin.
The furin was pre-incubated for 10 minutes at ambient temperature in the absence (control) or in the presence of a reference product, or of increasing concentrations of the test compound:
“Peregrina protein hydrolysate”; 0.02; 0.2 and 2% (v/v).
At the end of the pre-incubation step, a furin substrate was added and the experimental conditions were incubated once again at ambient temperature away from light for 5 minutes. All of the experiments were carried out in triplicate. […]
Cleavage of the fluorescent furin substrate was monitored for 5 minutes after addition of the substrate by reading the fluorescence at 485 nm/535 nm. […]
Evaluation protocol: Cleavage of the fluorescent furin substrate was monitored for 5 minutes after addition of the substrate by recording the fluorescence at 485 nm/535 nm. […]. […] The statistical significance of the difference observed between the “Control” and “Reference product” groups was evaluated by a Student test (p<0.001). The statistical significance of the difference observed between the “Control” and “Test compound” groups was evaluated by a one-way ANOVA, followed by a Holm-Sidak test (p<0.05). […]

**Q.** `CN(C)CCCN1c2ccccc2Sc2ccc(Cl)cc21` [Chlorpromazine, chlorpromazine] was tested. Which IC50 ([1]; in the absence of UVA) did it give?
**A.** 7 to 90 µg/mL (≈ 22 to 282 µM)

**Q.** And the IC50 ([1]; in the presence of UVA)?
**A.** 0.1 to 2 µg/mL

**Q.** How did the “Increase of the DKK-1 liberated compared with the Control” value (DKK-1) turn out when `C[C@@H]1C[C@H]2[C@@H]3CCC4=CC(=O)C=C[C@]4(C)[C@@]3(F)[C@@H](O)C[C@]2(C)[C@@]1(O)C(=O)CO` [Dexamethasone, dexamethasone] was run?
**A.** 181.8%

**Q.** Which “Inhibition of the activity of furin” value (recombinant human furin) does the source give for “decanoyl-Arg-Val-Lys-Arg-CMK (Decanoyl-RVKR-CH2Cl)” here?
**A.** 97.9%
